Measurements: US10251860B2, “Compounds for bone healing” (University of Pittsburgh—Of the Commonwealth System of …, priority 2015, dated 2019)
Entries after “also recorded” stand apart in the source; their conditions may differ.

System: fibrotic phase associated RNA (TGF-β, TLR4, TLR7), bromodomain transcripts
Test: RT-PCR of irradiation induced gene transcripts in lung
Format: in vivo, mouse
Details: 20 Gy thoracic irradiation, MMS350 in drinking water
Experimental: To isolate different cellular compartments of the lung, mice were sacrificed and the pulmonary cavity was opened, and lungs perfused by injecting 5 ml of phosphate-buffered saline (PBS) into the right ventricle of the heart. To isolate pulmonary endothelial cells, the lungs were filled with 1 ml of dispase (39.65 mg/ml), allowed to collapse, and then expanded with 0.5 ml of a 1% low-melt agarose, which had been stored at 45° C. in a water bath. The lungs were immediately covered with ice and incubated for 2 minutes. […] The cells were analyzed by flow cytometry with PECAM+ endothelial cells and PECAM− and CD45− cells alveolar cells isolated.
RNA was extracted from mouse lung or purified cell populations using the TRIzol reagent (Invitrogen, Carlsbad, Calif.) following the manufacturer's instructions, quantified using a spectrophotometer, and stored at −80° C. […]

Structure (SMILES): CC1(C[S+]([O-])CC2(C)COC2)COC1 [Compound 3, 3,3′-Sulfinylbis(methylene)bis(3-methyloxetane)]
- bromodomain transcripts: little effect on bromodomain transcripts
- expression of fibrosis phase mRNA: decreased expression of fibrosis phase mRNA expression; also recorded: downregulation of transcription of mRNA associated with the late pulmonary fibrotic reaction
